Key:
[1] = system: K48-linked poly-ubiquitinated proteins; assay: Immunoblot analysis of poly-ubiquitinated proteins in A375 cells; assay type: cell-based, human
Protocol: Melanoma cells were harvested as described before 6. Cells were lysed at 4° C. in RIPA buffer (Millipore) supplemented with Pierce™ Protease and Phosphatase Inhibitor Mini Tablets, and briefly sonicated. Cell lysates were cleared at 16,000 xg for 15 min at 4° C. Whole cell lysates were subjected to SDS-PAGE and immunoblot analysis as previously described 6.

16 melanoma cell lines = assay: MTS proliferation assay, collection of melanoma cell lines; assay type: cell-based; details: Homo sapiens, range over 16 melanoma cell lines, read-out: IC50 of b-AP15 for 16 melanoma cell lines
Protocol: (§1) Cell proliferation was measured by a MTS conversion assay using the CellTiter 96® Aqueous Non-Radioactive Cell Proliferation kit (Promega, Madison Wis.) according to the manufacturer instructions. Cells were seeded in 96-well plates (5×10^4 cells/well) and treated with different reagents for the indicated times and incubated at 37° C. with MTS reagent. The optical density of each sample at 490 nm was determined with a Multiskan FC plate reader (Thermo Fisher Scientific, Waltham, Mass. USA).

melanoma cells = assay: Cytotoxic effect, rounding of cells; assay type: cell-based, human
ER stress response genes = assay: qRT-PCR analysis of ER stress response genes; assay type: cell-based, human; details: 2 μM b-AP15, 6 h and 24 h; 12051u cells
Protocol: Total RNA was extracted from cell samples using Nucleospin RNAII kit (Macherey-Nagel) and following the manufacturer's instructions. Recovered RNA samples were quantified using NanoDrop spectrophotometer ND1000 (Thermo Fisher Scientific). Reverse transcription was performed on 1 μg of total RNA in a volume of 20 μL using High capacity cDNA Reverse Transcription kit (Applied Biosystems) according to the manufacturer's instructions. Quantitative PCR was performed on 20 ng cDNA samples, in sealed 96-well microtiter plates using the Platinum® SYBR Green qPCR Supermix-UDG w/ROX (Life Technologies) with the StepOnePlus System (Applied Biosystems). Relative mRNA levels were determined using the 2ΔΔCT method and ACTB and PPIA as housekeeping genes. Values are the mean of duplicates and are representative of two independent experiments.

m229 = assay: MTS conversion assay, melanoma cell proliferation; assay type: cell-based; details: Homo sapiens, MET, BRAFV600E/PTEN*, resistance none, 48 h MTS, read-out: b-AP15 IC50
Protocol: as §1

HMV2 = assay: MTS conversion assay, melanoma cell proliferation; assay type: cell-based; details: Homo sapiens, HMV-2, MET, NRAS*, resistance none, 48 h MTS, read-out: b-AP15 IC50
Protocol: as §1

Mel1617R = assay: MTS conversion assay, melanoma cell proliferation; assay type: cell-based; details: Homo sapiens, MET, BRAF*/p53*/?, resistance dabrafenib, 48 h MTS, read-out: b-AP15 IC50
Protocol: as §1

m249R = assay: MTS conversion assay, melanoma cell proliferation; assay type: cell-based; details: Homo sapiens, MET, BRAFV600E/PTEN*/NRAS*, resistance vemurafenib, 48 h MTS, read-out: b-AP15 IC50
Protocol: as §1

m249 = assay: MTS conversion assay, melanoma cell proliferation; assay type: cell-based; details: Homo sapiens, MET, BRAFV600E/PTEN*, resistance none, 48 h MTS, read-out: b-AP15 IC50
Protocol: as §1

WM793 = assay: MTS conversion assay, melanoma cell proliferation; assay type: cell-based; details: Homo sapiens, VGP, BRAFV600E/PTEN*, resistance none, 48 h MTS, read-out: b-AP15 IC50
Protocol: as §1

SBCL2 = assay: MTS conversion assay, melanoma cell proliferation; assay type: cell-based; details: Homo sapiens, RGP, NRASQ61K, resistance none, 48 h MTS, read-out: b-AP15 IC50
Protocol: as §1

m238 = assay: MTS conversion assay, melanoma cell proliferation; assay type: cell-based; details: Homo sapiens, MET, BRAFV600E/PTEN*, resistance none, 48 h MTS, read-out: b-AP15 IC50
Protocol: as §1

MeWo = assay: MTS conversion assay, melanoma cell proliferation; assay type: cell-based; details: Homo sapiens, MET, p53*/CDKN2A*, resistance none, 48 h MTS, read-out: b-AP15 IC50
Protocol: as §1

USP14 = target: T1, USP14 (Homo sapiens, UniProt P54578); assay: DUB trap assay (HA-Ub-VS probe, anti-USP14 immunoblot); assay type: cell-based
T1 construct: endogenous in cells; host or cells: A375 (also 1205Lu, 501Mel, SKMel28, 451Lu) melanoma cells; cell lysates
Protocol: Cells were harvested, washed with PBS and pellets were dried then freezed (−80° C.) and subsequently lysed in ice-cold buffer containing 50 mM Tris (pH 7.4), 5 mM MgCl2, 250 mM sucrose, 1 mM DTT, 2 mM ATP, and 1 mM PMSF and mild sonication. Lysates were cleared by centrifugation, and 20 μg of protein extracts were incubated for 25 min at 37° C. with 2 μM HA-Ub-VS (Boston Biochem, Cambridge, Mass.). After boiling in reducing sample buffer, labelled cell lysates were subjected to immunoblot analysis as described above using the indicated antibodies.

A375 cells = assay: ROS production (CM-H2DCFDA, flow cytometry); assay type: cell-based, human; details: 2 μM b-AP15 for 30 min
Protocol: ROS levels were measured using the redox-sensitive dye CM-H2DCFDA (Thermo Fischer Scientific). After treatment, cells were stained with 10 μM CM-H2DCFDA in PBS for 30 min at 37° C. Cells were washed with PBS and resuspended in PBS 5 mM EDTA/1% BSA. ROS production was analysed using a MACSQuant® Analyzer 10 cytometer (Miltenyi Biotech).

[2] = Body weight during xenograft study; assay type: in vivo; details: 10 mgkg-1 i.p. every 3 days; nude mice; course of the study
Protocol: All mouse experiments were carried out in accordance with the Institutional Animal Care and the local ethics committee. For human melanoma xenografts, 5-week-old female athymic (nu/nu) mice (Harlan) were subcutaneously injected with 1×106 451Lu-R BRAF inhibitor resistant melanoma cells engineered to express a luciferase reporter (451Lu-R Luc+ cells) in 100 μl of PBS. After 3 days, mice were injected every 3 days intraperitoneally with vehicle or 10 mgkg-1 b-AP15 in 90/1/9 mix of Labrafil/Tween 80/DMA. At the indicated time, mice were anesthetized and injected intraperitoneally with 50 mgkg-1 D-luciferin (Perkin Elmer) in PBS. Images were acquired using a Photon Imager (Biospace Lab) system and data analysed with the M3Vision software (Biospace Lab). Tumor growth was monitored and quantified using BLI. The total numbers of photons per second per steradian per square centimeter were recorded. For BLI plots, photon flux was calculated for each mouse by using a rectangular region of interest encompassing the thorax of the mouse in a prone position.

T1 sequence (P54578 whole entry): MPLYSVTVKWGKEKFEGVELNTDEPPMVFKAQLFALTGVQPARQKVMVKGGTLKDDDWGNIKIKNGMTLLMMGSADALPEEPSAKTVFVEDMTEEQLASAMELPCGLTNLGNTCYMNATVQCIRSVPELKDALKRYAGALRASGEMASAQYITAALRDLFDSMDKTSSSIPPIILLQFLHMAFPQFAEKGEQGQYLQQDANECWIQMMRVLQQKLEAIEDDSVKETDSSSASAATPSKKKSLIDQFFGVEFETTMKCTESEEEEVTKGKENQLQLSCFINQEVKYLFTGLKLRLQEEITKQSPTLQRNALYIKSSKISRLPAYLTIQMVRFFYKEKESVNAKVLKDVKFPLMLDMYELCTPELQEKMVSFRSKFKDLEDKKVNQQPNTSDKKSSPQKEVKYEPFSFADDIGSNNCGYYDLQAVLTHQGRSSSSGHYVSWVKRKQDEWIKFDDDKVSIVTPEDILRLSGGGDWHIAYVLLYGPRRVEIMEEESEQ

Q: For `Cc1cc(C(=O)CN2CCCC2)c(C)n1-c1ccc(F)cc1` [b-AP15], which K48-linked poly-ubiquitinated proteins [1] is on record?
A: Its K48-linked poly-ubiquitinated proteins is “induced a rapid accumulation”.

Q: What about the IC50 (16 melanoma cell lines) of the same molecule?
A: Its IC50 is 400 to 2000 nM.

Q: What about the “time to rounding of melanoma cells” value (melanoma cells) of the same molecule?
A: The value was ≤ 12 h.

Q: And the “ER stress response (CHOP, BIP/GRP78, GADD34, ATF4, spliced XBP1)” value (ER stress response genes)?
A: The value was “triggered a potent ER stress response”.

Q: What about the IC50 (m229) of the same molecule?
A: Its IC50 is 1200 nM.

Q: What about the IC50 (HMV2) of the same molecule?
A: The IC50 was 1800 nM.

Q: And the IC50 (Mel1617R)?
A: The IC50 was 900 nM.

Q: What about the IC50 (m249R) of the same molecule?
A: The IC50 was 3000 nM.

Q: And the IC50 (m249)?
A: Its IC50 is 2000 nM.

Q: What about the IC50 (WM793) of the same molecule?
A: The IC50 was 300 nM.

Q: And the IC50 (SBCL2)?
A: The IC50 was 400 nM.

Q: And the IC50 (m238)?
A: The IC50 was 400 nM.

Q: What about the IC50 (MeWo) of the same molecule?
A: Its IC50 is 700 nM.

Q: And the “USP14 activity in 12051u, 501Mel, SKMe128 and 4511u cells” value (USP14; 2 μM)?
A: The value was “efficiently blocked the activity of USP14”.

Q: And the “USP14 activity (USP14-Ub-HA) in A375 cells” value (USP14; A375 melanoma cells)?
A: The value was “efficiently blocked the activity of USP14 in a dose-dependent manner”.

Q: What about the ROS production (A375 cells) of the same molecule?
A: The ROS production was “triggered a rapid burst of ROS”.

Q: What about the “tolerability / weight loss” value [2] of the same molecule?
A: Its value is “no weight loss was observed”.

From patent US20210186982A1, “METHODS AND COMPOSITIONS FOR TREATING MELANOMA” (UNIVERSITE NICE SOPHIA ANTIPOLIS, priority 2017, published 2021)
